Assay results as given in patent US10336761B2, “TGFβ receptor antagonist” (BRISTOL-MYERS SQUIBB COMPANY, priority 2015, dated 2019).

Molecular target: HIS-TGFβR1 T204D (Homo sapiens (Human), UniProt P36897, T204D)
Assay: HTRF probe-displacement assay, HIS-TGFβR1 T204D
Assay type: binding
Details: 1 hour at room temperature

HIS-TGFβR1 T204D, sequence (P36897 34-503 T204D): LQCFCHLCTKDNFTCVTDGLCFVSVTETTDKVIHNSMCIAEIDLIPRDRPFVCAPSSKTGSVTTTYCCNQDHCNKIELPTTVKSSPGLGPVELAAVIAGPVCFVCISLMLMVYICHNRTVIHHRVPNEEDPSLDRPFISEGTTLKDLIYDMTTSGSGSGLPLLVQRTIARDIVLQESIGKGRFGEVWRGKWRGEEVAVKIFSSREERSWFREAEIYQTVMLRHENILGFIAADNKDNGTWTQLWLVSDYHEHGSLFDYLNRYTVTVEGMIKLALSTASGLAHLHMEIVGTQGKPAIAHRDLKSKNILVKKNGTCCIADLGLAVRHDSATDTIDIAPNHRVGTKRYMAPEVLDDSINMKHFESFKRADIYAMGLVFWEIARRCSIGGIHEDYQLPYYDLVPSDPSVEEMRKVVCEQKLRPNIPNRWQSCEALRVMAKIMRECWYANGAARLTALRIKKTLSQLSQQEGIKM

Structure (SMILES)	IC50
Cc1csc(-c2nc(Nc3ccncc3F)c3cccn3n2)n1 [Example 12, 3-fluoro-N-[2-(4-methyl-1,3-thiazol-2-yl)pyrrolo[2,1-f][1,2,4]triazin-4-yl]pyridin-4-amine]	0.8 nM
COc1cccc(-c2nc(Nc3ccncc3F)c3c(CNCC(C)(C)O)ccn3n2)n1 [Example 118, 1-[({4-[(3-fluoropyridin-4-yl)amino]-2-(6-methoxypyridin-2-yl)pyrrolo[2,1-f][1,2,4]triazin-5-yl}methyl)amino]-2-methylpropan-2-ol]	9.7 nM
Fc1ccc(-c2nc(Nc3cc(Cl)ncc3F)c3cccn3n2)nc1 [Example 317, 2-chloro-5-fluoro-N-[2-(5-fluoropyridin-2-yl)pyrrolo[2,1-f][1,2,4]triazin-4-yl]pyridin-4-amine]	3000 nM
COc1cccc(-c2nc(Nc3ccncc3F)c3c(CN4CCN(C)CC4)ccn3n2)n1 [Example 121, 3-fluoro-N-[2-(6-methoxypyridin-2-yl)-5-[(4-methylpiperazin-1-yl)methyl]pyrrolo[2,1-f][1,2,4]triazin-4-yl]pyridin-4-amine]	22 nM
CS(=O)(=O)Nc1cccc(-c2nc(Nc3ccncc3F)c3cccn3n2)n1 [Example 77, N-(6-{4-[(3-fluoropyridin-4-yl)amino]pyrrolo[2,1-f][1,2,4]triazin-2-yl}pyridin-2-yl)methanesulfonamide]	12 nM
COc1cccc(-c2nc(Nc3ccncc3F)c3c(CNCCN4CCCC4)ccn3n2)n1 [Example 119, 3-fluoro-N-[2-(6-methoxypyridin-2-yl)-5-({[2-(pyrrolidin-1-yl)ethyl]amino}methyl)pyrrolo[2,1-f][1,2,4]triazin-4-yl]pyridin-4-amine]	63 nM
CN1CCN(Cc2ccn3nc(-c4cccc(C(F)F)n4)nc(Nc4ccncc4F)c23)CC1 [Example 115, N-{2-[6-(difluoromethyl)pyridin-2-yl]-5-[(4-methylpiperazin-1-yl)methyl]pyrrolo[2,1-f][1,2,4]triazin-4-yl}-3-fluoropyridin-4-amine]	5.7 nM
Cc1cccc(-c2nc(Nc3ccncc3Cl)c3cccn3n2)n1 [Example 59, 3-chloro-N-[2-(6-methylpyridin-2-yl)pyrrolo[2,1-f][1,2,4]triazin-4-yl]pyridin-4-amine]	1.6 nM
Cc1nc(-c2nc(Nc3ccncc3C(=O)NCCN3CCS(=O)(=O)CC3)c3cccn3n2)ccc1F [Example 35, N-[2-(1,1-dioxo-1,4-thiomorpholin-4-yl)ethyl]-4-{[2-(5-fluoro-6-methylpyridin-2-yl)pyrrolo[2,1-f][1,2,4]triazin-4-yl]amino}pyridine-3-carboxamide]	22 nM
Fc1cccc(-c2nc(Nc3ccncc3F)c3cccn3n2)n1 [Example 14, 3-fluoro-N-[2-(6-fluoropyridin-2-yl)pyrrolo[2,1-f][1,2,4]triazin-4-yl]pyridin-4-amine]	0.79 nM
COc1cccc(-c2nc(Nc3ccncc3F)c3c(CCN4CCOCC4)ccn3n2)n1 [Example 113, 3-fluoro-N-[2-(6-methoxypyridin-2-yl)-5-[2-(morpholin-4-yl)ethyl]pyrrolo[2,1-f][1,2,4]triazin-4-yl]pyridin-4-amine]	120 nM
Cc1nnc(NCc2ccn3nc(-c4ccccn4)nc(Nc4ccncc4F)c23)s1 [Example 308, 3-fluoro-N-(5-{[(5-methyl-1,3,4-thiadiazol-2-yl)amino]methyl}-2-(pyridin-2-yl)pyrrolo[2,1-f][1,2,4]triazin-4-yl)pyridin-4-amine]	4.7 nM
CNC(=O)c1cc2c(Nc3ccncc3)nc(-c3cccc(C)n3)nn2c1 [Example 220, N-methyl-2-(6-methylpyridin-2-yl)-4-[(pyridin-4-yl)amino]pyrrolo[2,1-f][1,2,4]triazine-6-carboxamide]	11 nM
Cc1nc(-c2nc(Nc3ccncc3)c3cccn3n2)ccc1F [Example 69, N-[2-(5-fluoro-6-methylpyridin-2-yl)pyrrolo[2,1-f][1,2,4]triazin-4-yl]pyridin-4-amine]	1.9 nM
CSc1nccc(-c2nc(Nc3ccncc3)c3cccn3n2)n1 [Example 215, N-{2-[2-(methylsulfanyl)pyrimidin-4-yl]pyrrolo[2,1-f][1,2,4]triazin-4-yl}pyridin-4-amine]	6.9 nM
Cc1cccc(-c2nc(Nc3ccncc3C(=O)N(C)CCN(C)C)c3cccn3n2)n1 [Example 162, N-[2-(dimethylamino)ethyl]-N-methyl-4-{[2-(6-methylpyridin-2-yl)pyrrolo[2,1-f][1,2,4]triazin-4-yl]amino}pyridine-3-carboxamide]	110 nM
Fc1cnccc1Nc1nc(-c2cscn2)nn2cccc12 [Example 262, 3-fluoro-N-[2-(1,3-thiazol-4-yl)pyrrolo[2,1-f][1,2,4]triazin-4-yl]pyridin-4-amine]	8.2 nM
OCCN1CCN(Cc2ccn3nc(-c4cccc(C(F)F)n4)nc(Nc4ccncc4F)c23)CC1 [Example 253, 2-[4-({2-[6-(difluoromethyl)pyridin-2-yl]-4-[(3-fluoropyridin-4-yl)amino]pyrrolo[2,1-f][1,2,4]triazin-5-yl}methyl)piperazin-1-yl]ethan-1-ol]	1.2 nM
CC(C)(C)OC(=O)N1CCN(CCNC(=O)c2cnccc2Nc2nc(-c3ccccn3)nn3cccc23)CC1 [Example 145, tert-butyl 4-{2-[(4-{[2-(pyridin-2-yl)pyrrolo[2,1-f][1,2,4]triazin-4-yl]amino}pyridin-3-yl)formamido]ethyl}piperazine-1-carboxylate]	210 nM
O=C(NCCCN1CCCC1)c1cnccc1Nc1nc(-c2cccc(C(F)(F)F)n2)nn2cccc12 [Example 37]	47 nM
Fc1cnccc1Nc1nc(-c2ccccn2)nn2ccc(CNCc3ccc4c(c3)OCO4)c12 [Example 294, N-(5-{[(2H-1,3-benzodioxol-5-ylmethyl)amino]methyl}-2-(pyridin-2-yl)pyrrolo[2,1-f][1,2,4]triazin-4-yl)-3-fluoropyridin-4-amine]	0.4 nM
COc1cccc(-c2nc(Nc3ccnc(N4CCOCC4)c3)c3cccn3n2)n1 [Example 99, N-[2-(6-methoxypyridin-2-yl)pyrrolo[2,1-f][1,2,4]triazin-4-yl]-2-(morpholin-4-yl)pyridin-4-amine]	2900 nM
Fc1cnccc1Nc1nc(-c2cc(Cl)ccn2)nn2cccc12 [Example 63, N-[2-(4-chloropyridin-2-yl)pyrrolo[2,1-f][1,2,4]triazin-4-yl]-3-fluoropyridin-4-amine]	150 nM
COc1cccc(-c2nc(Nc3ccncc3CO)c3cccn3n2)n1 [Example 206, (4-{[2-(6-methoxypyridin-2-yl)pyrrolo[2,1-f][1,2,4]triazin-4-yl]amino}pyridin-3-yl)methanol]	9.2 nM
OCC(CO)NCc1ccn2nc(-c3ccccn3)nc(Nc3ccncc3F)c12 [Example 264, 2-[({4-[(3-fluoropyridin-4-yl)amino]-2-(pyridin-2-yl)pyrrolo[2,1-f][1,2,4]triazin-5-yl}methyl)amino]propane-1,3-diol]	1.7 nM
COc1cccc(-c2nc(Nc3ccncc3F)c3c(C(O)CN4CCC(N(C)C)CC4)ccn3n2)n1 (centres unmarked) [Example 30, 2-[4-(dimethylamino)piperidin-1-yl]-1-{4-[(3-fluoropyridin-4-yl)amino]-2-(6-methoxypyridin-2-yl)pyrrolo[2,1-f][1,2,4]triazin-5-yl}ethan-1-ol]	260 nM
